Target: T1, CCR-3 receptor (Homo sapiens, UniProt P51677)
T1 construct: expressed in transfected cells; host or cells: L1.2 (murine pre-B lymphoma line)
T1 sequence (P51677 1-355): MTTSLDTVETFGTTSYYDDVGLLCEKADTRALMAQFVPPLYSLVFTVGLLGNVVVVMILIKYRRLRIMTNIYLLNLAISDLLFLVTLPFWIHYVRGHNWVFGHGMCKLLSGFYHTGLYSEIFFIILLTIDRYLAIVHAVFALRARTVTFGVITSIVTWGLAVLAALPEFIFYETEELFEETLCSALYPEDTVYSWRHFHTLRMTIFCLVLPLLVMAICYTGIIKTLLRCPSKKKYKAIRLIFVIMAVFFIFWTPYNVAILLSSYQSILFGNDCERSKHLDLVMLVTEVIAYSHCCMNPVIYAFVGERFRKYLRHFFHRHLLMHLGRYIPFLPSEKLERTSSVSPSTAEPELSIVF
Test: CCR-3 Receptor Binding Assay in vitro (inhibition of 125I eotaxin binding to CCR-3 L1.2 transfectant cells)
Conditions: concentration reducing 125I-eotaxin binding to CCR-3 L1.2 transfected cells by 50%; read-out: CCR-3 IC50
Description: The CCR-3 antagonistic activity of the compounds of the invention was determined by their ability to inhibit the binding of ^125I eotaxin to CCR-3 L1.2 transfectant cells (see Ponath, P. D. et al., J. Exp. Med., Vol. 183, 2437-2448, (1996)).
The assay was performed in Costar 96-well polypropylene round bottom plates. Test compounds were dissolved in DMSO and then diluted with binding buffer (50 mM HEPES, 1 mM CaCl2, 5 mM MgCl2, 0.5% bovine serum albumin (BSA), 0.02% sodium azide, pH 7.24) such that the final DMSO concentration was 2%. Each well was filled with 25 μl of the test solution or only buffer with DMSO (control samples) followed by the addition of 25 μl of ^125I-eotaxin (100 pmol) (NEX314, New England Nuclear, Boston, Mass.) and 1.5×10^5 of the CCR-3 L1.2 transfected cells in 25 μl binding buffer. The final reaction volume was 75 μl.
After incubating the reaction mixture for 1 h at room temperature, the reaction was terminated by filtering the reaction mixture through polyethylenimine treated Packard Unifilter GF/C filter plate (Packard, Chicago, Ill.). The filters were washed four times with ice cold wash buffer containing 10 mM HEPES and 0.5M sodium chloride (pH 7.2) and dried at 65° C. for approximately 10 min. 25 μl/well of Microscint-20™ scintillation fluid (Packard) was added and the radioactivity retained on the filters was determined by using the Packard TopCount™.
The IC50 value (concentration of test compound required to reduce ^125I-eotaxin binding to the CCR-3 L 1.2 transfected cells by 50%) for compounds in Table I of the invention was between 0.02 and 200 μM, preferably between 0.02 and 10 μM.

Row | Structure (SMILES) | IC50 [µM]
1 | COc1ccc(-c2cnc(SCC(=O)NCC3CCCN(Cc4ccccc4)C3)nc2)cc1OC (centres unmarked) [Compound 36, N-(1-benzyl-piperidin-3-ylmethyl)-2-[5-(3,4-dimethoxy-phenyl)-pyrimidin-2-ylsulfanyl]-acetamide] | 1.06
2 | O=C(CSc1ncc(-c2ccccc2)cn1)NCC1CCCN(Cc2ccc(O)c(O)c2)C1 (centres unmarked) [Compound 38, N-[1-(3,4-dihydroxy-benzyl)-piperidin-3-ylmethyl]-2-(5-phenyl-pyrimidin-2-ylsulfanyl)-acetamide] | 1.35
3 | COc1ccc(-c2cnc(SCC(=O)NCC3CCCN(Cc4ccc(F)c(F)c4)C3)nc2)cc1 (centres unmarked) [Compound 39, N-[1-(3,4-difluoro-benzyl)-piperidin-3-ylmethyl]-2-[5-(4-methoxy-phenyl)-pyrimidin-2-ylsulfanyl]-acetamide] | 1.37
4 | COc1ccc(-c2cnc(SCC(=O)NCC3CCCN(Cc4ccc5c(c4)CCC5)C3)nc2)cc1 (centres unmarked) [Compound 40] | 1.39
5 | O=C(CSc1ncc(-c2ccccc2)cn1)NCC1CCCN(Cc2ccc3c(c2)OCO3)C1 (centres unmarked) [Compound 41, N-(1-benzo[1,3]-dioxol-5-ylmethyl-piperidin-3-ylmethyl)-2-(5-phenyl-pyrimidin-2-ylsulfanyl)-acetamide] | 1.56
6 | O=C(CSc1ncc(-c2ccccc2)cn1)NCC1CCCN(Cc2ccc(Cl)c(Cl)c2)C1 (centres unmarked) [Compound 42, N-[1-(3,4-dichloro-benzyl)-piperidin-3-ylmethyl]-2-(5-phenyl-pyrimidin-2-ylsulfanyl)-acetamide] | 1.56
7 | COc1ccc(-c2cnc(CCC(=O)NCC3CCCN(Cc4ccc5c(c4)OCO5)C3)nc2)cc1 (centres unmarked) [Compound 44, N-(1-benzo[1,3]-dioxol-5-ylmethyl-piperidin-3-ylmethyl)-3-[5-(4-methoxy-phenyl)-pyrimidin-2-yl]-propionamide] | 2.08
8 | COc1ccc(-c2cnc(OCC(=O)NCC3CCCN(Cc4cccc(Cl)c4Cl)C3)nc2)cc1 (centres unmarked) [Compound 46, N-[1-(2,3-dichloro-benzyl)-piperidin-3-ylmethyl]-2-[5-(4-methoxy-phenyl)-pyrimidin-2-yloxy]-acetamide] | 2.11
9 | O=C(CSc1ncc(-c2ccccc2)cn1)NCC1CCCN(Cc2ccc(Cl)c(C(F)(F)F)c2)C1 (centres unmarked) [Compound 48, N-[1-(4-chloro-3-trifluoromethyl-benzyl)-piperidin-3-ylmethyl]-2-(5-phenyl-pyrimidin-2-yl-sulfanyl)-acetamide] | 2.41
10 | O=C(CSc1ncc(-c2ccccc2)cn1)NCC1CCCN(Cc2ccc(F)c(F)c2)C1 (centres unmarked) [Compound 49, N-[1-(3,4-difluoro-benzyl)-piperidin-3-ylmethyl]-2-(5-phenyl-pyrimidin-2-ylsulfanyl)-acetamide] | 2.81
11 | COc1ccc(-c2cnc(OCC(=O)NCC3CCCN(Cc4ccc5c(c4)OCO5)C3)nc2)cc1OC (centres unmarked) [Compound 51, N-(1-benzo[1,3]-dioxol-5-ylmethyl-piperidin-3-ylmethyl)-2-[5-(3,4-dimethoxy-phenyl)-pyrimidin-2-yloxy]-acetamide] | 4.64
12 | COc1cccc(-c2cnc(OCC(=O)NCC3CCCN(Cc4cccc(Cl)c4Cl)C3)nc2)c1 (centres unmarked) [Compound 52, N-[1-(2,3-dichloro-benzyl)-piperidin-3-ylmethyl]-2-[5-(3-methoxy-phenyl)-pyrimidin-2-yloxy]-acetamide] | 5.74
13 | COc1cc(-c2cnc(CCC(=O)NCC3CCCN(Cc4cccc(Cl)c4Cl)C3)nc2)cc(OC)c1OC (centres unmarked) [Compound 57, N-[1-(2,3-dichloro-benzyl)-piperidin-3-ylmethyl]-3-[5-(3,4,5-trimethoxy-phenyl)-pyrimidin-2-yl]-propionamide] | 12
14 | COc1cc(-c2cnc(OCC(=O)NCC3CCCN(Cc4ccc(Cl)c(Cl)c4)C3)nc2)cc(OC)c1OC (centres unmarked) [Compound 58, N-[1-(3,4-dichloro-benzyl)-piperidin-3-ylmethyl]-2-[5-(3,4,5-trimethoxy-phenyl)-pyrimidin-2-yloxy]-acetamide] | 21
15 | COc1cccc(-c2cnc(OCC(=O)NCC3CCCN(Cc4ccc5c(c4)OCO5)C3)nc2)c1 (centres unmarked) [Compound 62, N-(1-benzo[1,3]-dioxol-5-ylmethyl-piperidin-3-ylmethyl)-2-[5-(3-methoxy-phenyl)-pyrimidin-2-yloxy]-acetamide] | 128
16 | COc1ccc(-c2cnc(SCC(=O)NCC3CCCN(Cc4cc(Br)c(Br)s4)C3)nc2)cc1OC (centres unmarked) [Compound 63, N-[1-(4,5-dibromo-thiophen-2-ylmethyl)-piperidin-3-ylmethyl]-2-[5-(3,4-dimethoxy-phenyl)-pyrimidin-2-ylsulfanyl]-acetamide] | 0.066
17 | COc1ccc(-c2cnc(SCC(=O)NCC3CCCN(Cc4cc(Cl)c(Cl)s4)C3)nc2)cc1OC (centres unmarked) [Compound 64, N-[1-(4,5-dichloro-thiophen-2-ylmethyl)-piperidin-3-ylmethyl]-2-[5-(3,4-dimethoxy-phenyl)-pyrimidin-2-ylsulfanyl]-acetamide] | 0.081
